Assay results taken from US7314959B2, “Amino thiol compounds and compositions for use in conjunction with cancer therapy” (Wisconsin Alumni Research Foundation, priority 2003, dated 2008).
Like-named read-outs stand apart in the source and are kept apart here.

Assays:
[1] = test system: p21 protein in 23SK human skin cells; test: p21 induction by western analysis; format: cell-based; details: 23SK cells, 30 hr exposure
Procedure: FIGS. 3A and 3B illustrate the level of induced p21 protein seen in diploid human fibroblasts after a 30 hr exposure to each of the indicated chemoprotective polyamines. […] In these experiments, the 23SK human skin cells were exposed for 30 hr to an “IC80” dose of each of the indicated chemoprotective polyamines and then lysed. Cell extracts were then prepared in order to measure p21 levels by western analysis (FIG. 3A).
FIG. 3 illustrates that chemoprotective polyamines are able to induce expression of the negative cell cycle regulatory protein, p21, after exposing the human skin cells to the polyamine molecules. […] In these experiments, the 23SK human skin cells were exposed for 30 hr to an “IC80” dose of each of the indicated chemoprotective polyamines and then lysed. Cell extracts were then prepared in order to measure p21 levels by western analysis (FIG. 3A). Although the ability of modified polyamines to induce p21 is known in the literature (Kramer, D. et al., Cancer Res. 59:1278-1286, 1999), it is a novel aspect of this invention that those chemoprotective polyamines with longer aliphatic “arms” were better able to induce expression of p21 as shown in FIG. 4.

23SK skin cells = test: Flow cytometry cell cycle distribution; format: cell-based, human
Description: FIGS. 5A-5D are cell histograms showing the results from flow cytometry analysis of chemoprotective polyamine-treated 23SK skin cells.
In FIG. 5, cell histograms showing the results from flow cytometry analysis of chemoprotective polyamine-treated 23SK skin cells are shown. […] The transient nature of the cell cycle block induced by chemoprotective polyamines is believed to be an important aspect of their efficacy, i.e., their ability to block cell cycle progression in stem cells during the course of chemo- or radiotherapy, and the resumption of normal stem cell division after a given cancer therapy course has been completed.

cell cycle = details: Jeitner and Renton 1996; Snyder and Grdina 2000; Kramer et al. 1997; cited from earlier work
[2] = test system: radiation-induced dermatitis on backs of rats; test: Radiation-induced dermatitis in rat skin model; format: in vivo; details: for protective activity against radiation-induced dermatitis: 370 mM, vehicle 50:30:20, scored 13 days later
Procedure: To determine efficacy of chemoprotective polyamines in preventing radiation-induced dermatitis, adult rats were topically treated with the compounds before and after radiation treatment. Rats were exposed to medically relevant levels of radiation that could induce clinical radiation dermatitis. Sprague Dawley rats (Harlan Spraque Dawley) at 4-6 weeks-old were anesthetized with sodium pentobarbital at 40 mg/kg body weight (Sigma, St. Louis, Mo.) prior to radiation exposure. A defined area (1.5×2 cm) on the backs of rats was irradiated using a Mark I, Model 30, Cs 137 irradiator (J. L. Sheppard & Associates). Before topical drug treatment or irradiation, the backs of the rats were clipped using an Oster clipper at the closest setting. The rest of the body was protected from radiation exposure using a lead shield (2.5 cm thick). A dose response study was initially performed to reproduce relevant dermatitis that matched the Grade (I-IV) scale used to score the severity of radiation-induced dermatitis in humans. The severity of the dermatitis was scored 12-13 days post-irradiation at the peak of the dermal inflammation. […] Radiation dermatitis of Grade II-III was considered most clinically relevant, so a radiation dose of 8.7 Gy was typically used in the rats. The clipped back region on the rats was treated topically with aminothiol in delivery vehicle four times in the two hours immediately preceding irradiation (at −2 hr, −1 hr, −30 min, and −10 min; irradiation was at 0 min
The polyamines or amino thiols were prepared in a delivery vehicle, consisting of ethanol:propylene glycol:water, ranging from 0:95:5 to 50:30:20 depending upon the solubility characteristics of the topical molecule, and the degree of dermal penetration desired. A vehicle composed of an emulsion formed by sonication of ‘nonionic liposomes’ and isopropyl myristate was also used (Jayaraman, S. et al., J. Pharm. Sci. 85:1082-1084, 1996). In a commonly used protocol, 220 μl of topical drug/vehicle was applied to an area ˜2 cm×3 cm on the back in the 2 hr just prior to irradiation. Rats treated with only the delivery vehicle served as controls. Twelve to thirteen days post-radiation, the rats were evaluated for dermatitis within the irradiated area. In early studies, a modified scoring scale described by Masuda K. et al., Int. J. Radiation Oncol. Biol. Phys: 12, 1645 (1986) was used, and in later studies, including those described here, a simplified scoring system was used in which the percentage of the irradiated, rectangular field covered with scrab material was estimated between 0 and 100% to provide scores on a scale between 0 and 100.
This example relates to the use of a rat skin model to evaluate the efficacy of two amino thiol compounds in preventing radiation-induced dermatitis. To test whether topically-applied aminothiols could prevent the radiodermatitis caused by external beam radiotherapy, the rodent model described in Example 3 was slightly modified. Briefly, the radiodermatitis model involved: • i) shaving the backs of 6-7 week old rats or mice; • ii) applying four topical doses of aminothiol in a delivery vehicle composed of ethanol:propylene glycol (PG):water in the 2 hr prior to irradiation; • iii) irradiating a small, 3 cm^2 (1.5×2 cm) area on the animal's back (through a window in a lead plate) with 8.7 Gy of γ radiation from a Cs^137 source; and • iv) scoring the severity of the dermatitis 12-13 days later, at the peak of the inflammatory skin reaction. Radiodermatitis severity was scored by estimating the percentage of the irradiated field that was covered by scrab material.
Methods: Treatments were applied as described in Example 6.

[3] = test system: primary, diploid fibroblasts isolated from human skin; test: Growth inhibition of primary diploid human skin fibroblasts; format: cell-based; details: 50% inhibition of human skin fibroblast growth
Procedure: The in vitro growth inhibitory effects of certain of the chemoprotective polyamines of the invention were measured using primary, diploid fibroblasts isolated from human skin.

DNA = DNA binding/precipitation from solution
Description: The chemoprotective polyamines provided herein are also able to bind, denature and precipitate DNA from solution. As the skilled artisan will appreciate, as the concentration of polyamine is increased, there is a point where polyamine binding to helical B-DNA induces single-stranded ‘bubbles’ and conversion to other forms of DNA structure, such as Z-DNA (Feuerstein, B. et al., Nuc. Acids Res. 17:6883-6892, 1989; Basu, H. and Marton, L., Biochem. J. 244:243-246, 1987), as well as precipitating the DNA from solution.

[4] = Expt. 1, read-out: IC50 (uM), Expt. 1
[5] = Expt. 2, read-out: IC50 (uM), Expt. 2
[6] = Expt. 1, read-out: DNA Bind/ppt. IC50 (uM), Expt. 1
[7] = Expt. 2, read-out: DNA Bind/ppt. IC50 (uM), Expt. 2

| Structure (SMILES) | p21 fold-induction at IC80 Dose [1] | Cell Cycle Distribution At IC80 Dose (%) G1 (23SK skin cells) | Cell Cycle Distribution At IC80 Dose (%) G2/M (23SK skin cells) | Cell Cycle Distribution At IC80 Dose (%) S (23SK skin cells) | IC50 [3, 4] | IC50 [3, 5] | IC50 (DNA; [6]) | further results |
| --- | --- | --- | --- | --- | --- | --- | --- | --- |
| CN[C@H]1CCc2cc(OC)c(OC)c(OC)c2-c2ccc(OC)c(=O)cc21 [Colcemid, reference compound] | 3.31 fold | 8% | 81% | 11% | – | – | – | – |
| CCNCCCNCCCNCCCNCC [DENSPM] | – | – | – | – | – | – | – | cell cycle arrest reported in literature (cell cycle): G1-specific cell cycle block that was reversible |
| CC(C)S [Mechanism Structure 1, reference compound] | – | – | – | – | – | – | – | protective activity against radiation-induced dermatitis ([2]; 8.7 Gy): neither molecule exhibited discernable protective activity |
| CNCCCNC [Mechanism Structure 2, reference compound] | – | – | – | – | – | – | – | protective activity against radiation-induced dermatitis ([2]; 8.7 Gy): neither molecule exhibited discernable protective activity |
| CCNCCCCNCCCCNCC=C(CNCC)CNCCCCNCCCCNCC [PrC-111] | 2.22 fold | 60% | 14% | 25% | 980 µM | 180 µM | 88 µM | – |
| CCNCCCCNCCCCNCCCCNCC=C(CNCC)CNCCCCNCCCCNCCCCNCC [PrC-112] | 2.45 fold | 61% | 16% | 23% | 2.53 µM | – | 93 µM | – |
| CCNCCCCNCCCCNCCCCNCCCCNCC=C(CNCC)CNCCCCNCCCCNCCCCNCCCCNCC [PrC-113] | 3.21 fold | 77% | 14% | 8% | 0.33 µM | 0.21 µM | 35 µM | – |
| CCNCCCCNC/C=C(/CS)CNCCCCNCC [PrC-114] | – | – | – | – | 850 µM | 240 µM | 94 µM | – |
| CCNCCCCNCCCCNC/C=C(/CS)CNCCCCNCCCCNCC [PrC-115] | – | – | – | – | 4100 µM | 1090 µM | 37 µM | IC50 (DNA; [7]): 83 µM |
| CCNCCCCNCCCCNCCCCNC/C=C(/CS)CNCCCCNCCCCNCCCCNCC [PrC-116] | 2.32 fold | 66% | 23% | 11% | 5.8 µM | – | 82 µM | IC50 (DNA; [7]): 63 µM |
| CCNCCCCNCCCCNCCCCNCCCCNC/C=C(/CS)CNCCCCNCCCCNCCCCNCCCCNCC [PrC-117] | ~3.0 fold | 86% | 3% | 11% | 0.32 µM | 0.24 µM | 58 µM | IC50 (DNA; [7]): 57 µM; distribution within cell cycle compartments after drug removal (23SK skin cells; 72 hr treatment, then 48 hr in drug-free medium (FIG. 5D)): basically returned to that seen in cells previously untreated; cells in G1 compartment (23SK skin cells; treated 72 hr (FIG. 5C)): 86.23%; cells in S+G2 compartments (23SK skin cells; treated 72 hr (FIG. 5C)): 13.77% |
| CCNCCCCNCCCCNCC=C(CO)CNCCCCNCCCCNCC [PrC-118] | – | – | – | – | 78 µM | – | – | – |
| CCNCCCCNCCCCNCC=C(CNC)CNCCCCNCCCCNCC [PrC-119] | 1.80 fold | – | – | – | 470 µM | 202 µM | 89 µM | – |
| CCNCCCCNCCCCNCCCCNCC=C(CS)CNCCCCNCCCCNCCCCNCC [PrC-123] | 2.22 fold | 68% | 21% | 10% | – | – | 131 µM | IC50 (DNA; [7]): 117 µM |
| NCC(CN)CS [PrC-211, 3-amino-2-aminomethyl-propane-1-thiol] | – | – | – | – | – | – | – | Dermatitis Score (% of irradiated field free of scab material) ([2]; 1400 mM PrC-211, vehicle 0:95:5 (ditto mark), cage 488): 60 ± 12%; concentration of topical aminothiol alone conferring complete protection against radiodermatitis ([2]; aminothiol alone, without epinephrine, 8.7 Gy): ~2200 mM |
| NCCCNCCCCNCCCN [Spermine, spermine, reference compound] | – | – | – | – | – | – | 2600 µM | IC50 for DNA binding/precipitation relative to most chemoprotective polyamines (DNA; spermine versus chemoprotective polyamines of Table 2): ~1,000 fold |
